This is an account of results in patent US11661403B2, “Oxadiazole compounds” (Vivace Therapeutics, Inc., priority 2018, dated 2023).

Some results are limits rather than exact numbers.

The first test has as its system 8XTBD luciferase reporter (YAP) in HEK293T cells. The test is described as follows: YAP Reporter Assay. It is filed as cell-based. Conditions: Homo sapiens, HEK-293T, 24 h, read-out: Firefly Luciferase IC50 (μM). (In general: Reporter assays use an easily measured gene product as a stand-in for the process of interest.)
On to `O=C1N[C@@H](c2nnc(-c3ccccc3Nc3ccc(C(F)(F)F)cc3)o2)CO1` [Compound 77, (R)-4-(5-(2-((4-(trifluoromethyl)phenyl)amino)phenyl)-1,3,4-oxadiazol-2-yl)oxazolidin-2-one], for which the IC50 (usually the midpoint of a concentration-inhibition curve) was < 0.1 µM. On the same count and under the same terms, in the case of `O=C1N[C@H](c2nnc(-c3ccccc3Nc3ccc(C(F)(F)F)cc3)o2)CO1` [Compound 78, (S)-4-(5-(2-((4-(trifluoromethyl)phenyl)amino)phenyl)-1,3,4-oxadiazol-2-yl)oxazolidin-2-one] it was 0.1 to 1 µM.

Staying with this test, now noted: Homo sapiens, HEK-293T; HEK293T cells stably transfected with 8XTBD luciferase reporter and pRLTK; 24-hr incubation; top concentration 3 μM; read-out: Firefly Luciferase IC50.
Regarding `FC(F)(F)c1ccc(Nc2ccccc2-c2nnc(-c3nn[nH]n3)o2)cc1` [Compound 48, 2-[5-(2H-tetrazol-5-yl)-1,3,4-oxadiazol-2-yl]-N-[4-(trifluoromethyl)phenyl]aniline], the IC50 is 1 to 5 µM. On the same count and under the same terms, in the case of `O=c1[nH]c(-c2nnc(-c3ccccc3Nc3ccc(C(F)(F)F)cc3)o2)no1` [Compound 50, 3-[5-[2-[4-(trifluoromethyl)anilino]phenyl]-1,3,4-oxadiazol-2-yl]-4H-1,2,4-oxadiazol-5-one] it was 1 to 5 µM. The same measure, in the same setting: then `OC(c1nnc(-c2ccccc2Nc2ccc(C(F)(F)F)cc2)o1)C(F)(F)F` (stereo not shown) [Compound 51, 2,2,2-trifluoro-1-(5-(2-((4-(trifluoromethyl)phenyl)amino)phenyl)-1,3,4-oxadiazol-2-yl)ethanol], with < 0.1 µM. On to `OC1(c2nnc(-c3ccccc3Nc3ccc(C(F)(F)F)cc3)o2)CCCC1` [Compound 52, 1-(5-(2-((4-(trifluoromethyl)phenyl)amino)phenyl)-1,3,4-oxadiazol-2-yl)cyclo pentanol], for which the IC50 was < 0.1 µM.

Take `Cc1ccc(S(=O)(=O)OC2(c3nnc(-c4ccccc4Nc4ccc(C(F)(F)F)cc4)o3)CC2)cc1` [Compound 53, 1-(5-(2-((4-(trifluoromethyl)phenyl)amino)phenyl)-1,3,4-oxadiazol-2-yl)cyclo propyl 4-methylbenzenesulfonate]: the IC50 was 0.1 to 1 µM. The same measure, in the same setting: in the case of `OC1(c2nnc(-c3ccccc3Nc3ccc(C(F)(F)F)cc3)o2)COC1` [Compound 55, 3-(5-(2-((4-(trifluoromethyl)phenyl)amino)phenyl)-1,3,4-oxadiazol-2-yl)oxetan-3-ol] it was < 0.1 µM; in that of `OC1(c2nnc(-c3ccccc3Nc3ccc(C(F)(F)F)cc3)o2)CCOC1` (stereo not shown) [Compound 56, 3-(5-(2-((4-(trifluoromethyl)phenyl)amino)phenyl)-1,3,4-oxadiazol-2-yl)tetra hydrofuran-3-ol], < 0.1 µM; in that of `CC(C)(C)OC(=O)NC1(c2nnc(-c3ccccc3Nc3ccc(C(F)(F)F)cc3)o2)CC1` [Compound 57, Tert-Butyl (1-(5-(2-((4-(trifluoromethyl)phenyl)amino)phenyl)-1,3,4-oxadiazol-2-yl)cyclopropyl)carbamate], 0.1 to 1 µM.

For `NC1(c2nnc(-c3ccccc3Nc3ccc(C(F)(F)F)cc3)o2)CC1` [Compound 58, 2-(5-(1-aminocyclopropyl)-1,3,4-oxadiazol-2-yl)-N-(4-(trifluoromethyl)phenyl) aniline], the IC50 was in the range of 0.1 to 1 µM.

With `OC(c1nnc(-c2ccccc2Nc2ccc(C(F)(F)F)cc2)o1)C(F)F` (stereo not shown) [Compound 60, 2,2-difluoro-1-(5-(2-((4-(trifluoromethyl)phenyl)amino)phenyl)-1,3,4-oxadiazol-2-yl)ethanol], the IC50 is < 0.1 µM. As to `NC(=O)NC1(c2nnc(-c3ccccc3Nc3ccc(C(F)(F)F)cc3)o2)CC1` [Compound 62, 1-(1-(5-(2-((4-(trifluoromethyl)phenyl)amino)phenyl)-1,3,4-oxadiazol-2-yl)cyclopropyl)urea], the IC50 was 0.1 to 1 µM. With `FC(F)(F)c1ccc(Nc2ccccc2-c2nnc(C3(F)CC3)o2)cc1` [Compound 63, 2-(5-(1-fluorocyclopropyl)-1,3,4-oxadiazol-2-yl)-N-(4-(trifluoromethyl)phenyl) aniline], the IC50 was in the range of 1 to 5 µM.

Consider `COC1(c2nnc(-c3ccccc3Nc3ccc(C(F)(F)F)cc3)o2)CC1` [Compound 67, 2-(5-(1-methoxycyclopropyl)-1,3,4-oxadiazol-2-yl)-N-(4-(trifluoromethyl)phenyl) aniline], for which the IC50 was < 0.1 µM.

For `C#CC(C)(C)c1nnc(-c2ccccc2Nc2ccc(C(F)(F)F)cc2)o1` [Compound 68, 2-(5-(2-methylbut-3-yn-2-yl)-1,3,4-oxadiazol-2-yl)-N-(4-(trifluoromethyl)phenyl)aniline], the IC50 was < 0.1 µM. In the case of `C#CC(C)Oc1nnc(-c2ccccc2Nc2ccc(C(F)(F)F)cc2)o1` (stereo not shown) [Compound 69, 2-(5-(but-3-yn-2-yloxy)-1,3,4-oxadiazol-2-yl)-N-(4-(trifluoromethyl)phenyl)aniline], the IC50 was < 0.1 µM. As to `CS(=O)(=O)c1nnc(-c2ccccc2Nc2ccc(C(F)(F)F)cc2)o1` [Compound 71, 2-(5-(methylsulfonyl)-1,3,4-oxadiazol-2-yl)-N-(4-(trifluoromethyl)phenyl)aniline], the IC50 was 0.1 to 1 µM. Still for that read-out and setting: in the case of `CSc1nnc(-c2ccccc2Nc2ccc(C(F)(F)F)cc2)o1` [Compound 72, 2-(5-(methylthio)-1,3,4-oxadiazol-2-yl)-N-(4-(trifluoromethyl)phenyl)aniline] it was 0.1 to 1 µM; in that of `COc1nnc(-c2ccccc2Nc2ccc(C(F)(F)F)cc2)o1` [Compound 73, 2-(5-methoxy-1,3,4-oxadiazol-2-yl)-N-(4-(trifluoromethyl)phenyl)aniline], < 0.1 µM. For `C[C@@]1(c2nnc(-c3ccccc3Nc3ccc(C(F)(F)F)cc3)o2)CCNC1=O` [Compound 75, (S)-3-methyl-3-(5-(2-((4-(trifluoromethyl)phenyl)amino)phenyl)-1,3,4-oxadiazol-2-yl)pyrrolidin-2-one], the IC50 was < 0.1 µM.

`C[C@]1(c2nnc(-c3ccccc3Nc3ccc(C(F)(F)F)cc3)o2)CCNC1=O` [Compound 76, (R)-3-methyl-3-(5-(2-((4-(trifluoromethyl)phenyl)amino)phenyl)-1,3,4-oxadiazol-2-yl)pyrrolidin-2-one]: the IC50 was < 0.1 µM. `OC(CCl)c1nnc(-c2ccccc2Nc2ccc(C(F)(F)F)cc2)o1` (stereo not shown) [Compound 81, 2-chloro-1-(5-(2-((4-(trifluoromethyl)phenyl)amino)phenyl)-1,3,4-oxadiazol-2-yl)ethan-1-ol]: the IC50 is < 0.1 µM. As for `FC(F)(F)c1ccc(Nc2ccccc2-c2nnc(OC/C=C/Br)o2)cc1` [Compound 82, (E)-2-(5-((3-bromoallyl)oxy)-1,3,4-oxadiazol-2-yl)-N-(4-(trifluoromethyl)phenyl)aniline], the IC50 fell in the range of 0.1 to 1 µM. On the same count and under the same terms, then `C#CCOc1nnc(-c2ccccc2Nc2ccc(C(F)(F)F)cc2)o1` [Compound 83, 2-(5-(prop-2-yn-1-yloxy)-1,3,4-oxadiazol-2-yl)-N-(4-(trifluoromethyl)phenyl)aniline], with < 0.1 µM; and `CC(=O)c1nnc(-c2ccccc2Nc2ccc(C(F)(F)F)cc2)o1` [Compound 85, 1-(5-(2-((4-(trifluoromethyl)phenyl)amino)phenyl)-1,3,4-oxadiazol-2-yl)ethan-1-one], with < 0.1 µM. The same measure, in the same setting: in the case of `CC1(c2nnc(-c3ccccc3Nc3ccc(C(F)(F)F)cc3)o2)OCCO1` [Compound 86, 2-(5-(2-methyl-1,3-dioxolan-2-yl)-1,3,4-oxadiazol-2-yl)-N-(4-(trifluoromethyl)phenyl)aniline] it was < 0.1 µM; in that of `CON(C)C(=O)C(C)(C)c1nnc(-c2ccccc2Nc2ccc(C(F)(F)F)cc2)o1` [Compound 87, N-methoxy-N,2-dimethyl-2-(5-(2-((4-(trifluoromethyl)phenyl)amino)phenyl)-1,3,4-oxadiazol-2-yl)propanamide], < 0.1 µM; in that of `N#CC1(Cc2nnc(-c3ccccc3Nc3ccc(C(F)(F)F)cc3)o2)CC1` [Compound 88, 1-((5-(2-((4-(trifluoromethyl)phenyl)amino)phenyl)-1,3,4-oxadiazol-2-yl)methyl)cyclopropane-1-carbonitrile], 0.1 to 1 µM.

Staying with this test, now noted: Homo sapiens, HEK-293T; […]; 24-hr incubation; top concentration 3 μM; read-out: Firefly Luciferase IC50.
`OC(c1nnc(-c2ccccc2Nc2ccc(C(F)(F)F)cc2)o1)C1CC1` (stereo not shown) [Compound 49, cyclopropyl(5-(2-((4-(trifluoromethyl)phenyl)amino)phenyl)-1,3,4-oxadiazol-2-yl)methanol]: the IC50 is < 0.1 µM. Same read-out and setting: in the case of `OC1(c2nnc(-c3ccccc3Nc3ccc(C(F)(F)F)cc3)o2)CCC1` [Compound 54, 1-(5-(2-((4-(trifluoromethyl)phenyl)amino)phenyl)-1,3,4-oxadiazol-2-yl)cyclo butanol] it was < 0.1 µM; in that of `CC(=O)NC1(c2nnc(-c3ccccc3Nc3ccc(C(F)(F)F)cc3)o2)CC1` [Compound 59, N-(1-(5-(2-((4-(trifluoromethyl)phenyl)amino)phenyl)-1,3,4-oxadiazol-2-yl)cyclopropyl)acetamide], 0.1 to 1 µM; in that of `CS(=O)(=O)C1(c2nnc(-c3ccccc3Nc3ccc(C(F)(F)F)cc3)o2)CC1` [Compound 66, 2-[5-(1-methylsulfonylcyclopropyl)-1,3,4-oxadiazol-2-yl]-N-[4-(trifluoromethyl)phenyl]aniline], < 0.1 µM. Still for that read-out and setting: in the case of `CC#CCOc1nnc(-c2ccccc2Nc2ccc(C(F)(F)F)cc2)o1` [Compound 70, 2-(5-(but-2-yn-1-yloxy)-1,3,4-oxadiazol-2-yl)-N-(4-(trifluoromethyl)phenyl)aniline] it was 1 to 5 µM; in that of `OC(CCl)Cc1nnc(-c2ccccc2Nc2ccc(C(F)(F)F)cc2)o1` (stereo not shown) [Compound 79, 1-chloro-3-(5-(2-((4-(trifluoromethyl)phenyl)amino)phenyl)-1,3,4-oxadiazol-2-yl)propan-2-ol], < 0.1 µM; in that of `OC(CCCl)c1nnc(-c2ccccc2Nc2ccc(C(F)(F)F)cc2)o1` (stereo not shown) [Compound 80, 3-chloro-1-(5-(2-((4-(trifluoromethyl)phenyl)amino)phenyl)-1,3,4-oxadiazol-2-yl)propan-1-ol], < 0.1 µM. Same read-out and setting: in the case of `C=CCOc1nnc(-c2ccccc2Nc2ccc(C(F)(F)F)cc2)o1` [Compound 84, 2-(5-(allyloxy)-1,3,4-oxadiazol-2-yl)-N-(4-(trifluoromethyl)phenyl)aniline] it was 0.1 to 1 µM.
